# Assay results as given in PMC12457078, “Inhibition of soluble epoxide hydrolase in endotoxin induced pig lung injury” (Frontiers in Pharmacology, 2025).
# Where “and” joins values, the source holds several entries; their conditions need not be identical. Equal entries are not always repeated. Entries after “also recorded” stand apart in the source; their conditions may differ.
# Tested on: endotoxin-induced lung injury
# Experiment: porcine model of LPS-induced acute lung injury: haemodynamics, ventilation/mechanics, blood gases, P/F, chemistry, temperature, survival
# Format: in vivo, pig
# Design: AF baseline / AF end / Ven. sat end: unit not given here; PaO2 3 h / PaO2 6 h: unit: kPa
# Protocol: The animals were bred for purpose at the Forslunda Agricultural School in Umeå, Sweden. The pigs were pairwise kept in 8 m^2 pens before start of experiments and were fed twice daily with a commercially available pig diet without antimicrobials, and with free access to water. Photoperiods were 12:12 h light:dark. Room temperature in their stall was 20 °C ± 1 °C.
# After overnight fasting, but with free access to water and hay, animals were pre-medicated with ketamine (Ketaminol vet® 100 mg/mL; Intervet International B.V, Boxmeer, Netherlands), xylazine (Rompun® vet 20 mg/mL; Bayer Animal Health, Copenhagen, Denmark) and atropine (Atropin Mylan 0.5 mg/mL; Mylan AB, Stockholm, Sweden) by intramuscular injection before an auricular vein was cannulated. Anesthesia was induced with ketamine and midazolam (Midazolam Hameln 5 mg/mL, Hameln Pharmaceuticals, Hameln, Germany) and maintained with ketamine, midazolam, xylazine and fentanyl (Fentanyl 0.05 mg/mL, B. Braun Medical AB, Danderyd, Sweden). The animals were orotracheally intubated and ventilated with tidal volume 8–9 mL/kg, PEEP 8 cmH2O, and a respiratory rate set to achieve an end-tidal carbon dioxide of 5–5.5 kPa.
# One animal served as a pharmacokinetic pilot, with arterial and venous catheters placed in a cut-down in the neck. The remaining 21 animals were used for the randomized study (Figure 1). After intubation and start of mechanical ventilation, a second auricular vein cannula was placed and infusion of either AEPU or placebo according to randomization was started. After 2 h of infusion of AEPU or placebo, an infusion of LPS was started. A bolus of 0.1 mg/kg was administered during 30 min after which the infusion rate was adjusted to 0.01 mg/kg/h. During the time between start of AEPU or placebo and LPS infusion, neck dissection was performed, exposing the v jugularis externa and carotid artery. A pulmonary artery introducer and an arterial cannula were placed in vein and artery respectively, and a pulmonary artery catheter introduced through the introducer and the tip placed in the correct position in the pulmonary artery placement guided by continuous invasive pressure monitoring or, when difficult, assisted by fluoroscopy. All surgical procedures were performed under sterile conditions.
# AEPU was synthesized according to Kim et al. ([Kim et al., 2007]), delivered in 60 mg vials and dissolved in 30 mL pure ethanol as a co-solvent, of which either 20 mL was added to 980 mL of sodium chloride 9 mg/mL or 8 mL–392 mL sodium chloride, creating a solution of 0.04 mg/mL AEPU and 2% ethanol. The placebo infusion was prepared by adding either 20 mL of pure ethanol to 980 mL of sodium chloride 9 mg/mL or 8 mL of pure ethanol to 392 mL sodium chloride, creating a 2% ethanol solution. Each animal received an infusion of either 0.1 mg/kg/h AEPU or the corresponding volume of placebo solution.
# A total of 200 mg of prefabricated lipopolysaccharides (LPS, Escherichia coli serotype 0,111:B4, Sigma-Aldrich (Product no L4130), St. Louis, MO, United States of America) was dissolved in 40 mL of sterile water, carefully mixed and filtered, creating a solution of 5 mg/mL. This preparation was stored frozen (−20 °C) in 1 mL partitions. For each animal, 2 mL of the thawed solution was mixed and diluted in 18 mL of sodium chloride, finally creating a 0.5 mg/mL LPS solution for infusion.
# All animals were monitored with pulse oximetry, heart rate, ECG, systemic arterial blood pressure (ABP), pulmonary arterial pressure (PAP), central venous pressure (CVP) temperature, tidal volumes, respiratory rate and end tidal carbon dioxide. At baseline, and at 3 h, 6 h and at the end of the experiment, pulmonary capillary wedge pressure (PCWP) was measured together with arterial and venous blood gas analyses, as well as cardiac output calculations. […]
# [1] = 3 h, individual animals, listed as sEH-i 950
# [2] = 6 h, individual animals, listed as sEH-i 950
# [3] = Lungmekanik, 3 h, individual animals, listed as sEH-i 950
# [4] = Lungmekanik, 6 h, individual animals, listed as sEH-i 950
# [5] = Lungmekanik, baseline, individual animals, listed as sEH-i 950
# [6] = Lungmekanik, end, individual animals, listed as sEH-i 950
# [7] = baseline, individual animals, listed as sEH-i 950
# [8] = end, individual animals, listed as sEH-i 950
# [9] = individual animals, 3 h, listed as sEH-i 950
compound,measurement,setting,value
CCOCCOCCOCCCCCNC(=O)NC12CC3CC(CC(C3)C1)C2 [Compound 950],AF 3 h,[1],41 and 50 and 42 and 48 and 30 and 45 and 39 and 44 and 40
same,FiO2 3 h,[1],0.4 and 0.5
same,PaO2 3 h,[1],22.1 and 20.1 and 17 and 22.7 and 19.3 and 16.7 and 9 and 8.1 and 7.3 and 14.7
same,AF 6 h,[2],40 and 54 and 50 and 48 and 30 and 45 and 39 and 44
same,FiO2 6 h,[2],0.4 and 0.5 and 0.8 and 0.7 and 1
same,PaO2 6 h,[2],19.6 and 12.3 and 11.8 and 18.6 and 18.5 and 14.7 and 8.7 and 9.4 and 6.8 and 7.9
same,lung injury development in LPS treated pigs,AEPU 0.1 mg/kg/h infusion vs placebo,did not attenuate
same,Premature death,"AEPU group, did not survive entire protocol",40%
same,Mortalitet: Aktivt avslut,"Ja = actively terminated, Nej = died, individual animals, listed as sEH-i 950",Nej and Ja and Nej*
same,PIP 3 h,[3],31 cmH2O and 28 cmH2O and 32 cmH2O and 24 cmH2O and 26 cmH2O and 34 cmH2O and 39 cmH2O and 44 cmH2O and 36 cmH2O
same,Pmedel 3 h,[3],14 cmH2O and 15 cmH2O and 12 cmH2O and 13 cmH2O and 16 cmH2O and 17 cmH2O
same,Pplat 3 h,[3],26 cmH2O and 23 cmH2O and 22 cmH2O and 27 cmH2O and 28 cmH2O and 25 cmH2O and 34 cmH2O and 33 cmH2O
same,PIP 6 h,[4],32 cmH2O and 33 cmH2O and 28 cmH2O and 30 cmH2O and 22 cmH2O
same,Pmedel 6 h,[4],13 cmH2O and 15 cmH2O and 14 cmH2O and 12 cmH2O
same,Pplat 6 h,[4],27 cmH2O and 26 cmH2O and 23 cmH2O and 21 cmH2O and 18 cmH2O
same,PIP baseline,[5],25 cmH2O and 23 cmH2O and 19 cmH2O and 24 cmH2O and 26 cmH2O and 27 cmH2O
same,Pmedel baseline,[5],12 cmH2O and 15 cmH2O and 13 cmH2O and 11 cmH2O and 14 cmH2O
same,Pplat baseline,[5],19 cmH2O and 16 cmH2O and 18 cmH2O and 22 cmH2O and 17 cmH2O
same,PIP end,[6],30 cmH2O and 37 cmH2O and 29 cmH2O and 28 cmH2O and 46 cmH2O
same,Pmedel end,[6],13 cmH2O and 16 cmH2O and 14 cmH2O
same,Pplat end,[6],24 cmH2O and 29 cmH2O and 22 cmH2O and 28 cmH2O
same,PaO2/FiO2 3h,"P/F-kvot, 3 h, individual animals, listed as sEH-i 950",55.25 and 40.2 and 42.5 and 56.75 and 48.25 and 41.75 and 22.5 and 16.2 and 18.25 and 36.75
same,PaO2/FiO2 6h,"P/F-kvot, 6 h, individual animals, listed as sEH-i 950",49 and 24.6 and 23.6 and 46.5 and 46.25 and 36.75 and 10.87 and 13.43 and 6.8 and 19.75
same,PaO2/FiO2 baseline,"P/F-kvot, baseline, individual animals, listed as sEH-i 950",73.75 and 71.5 and 73 and 67 and 72.75 and 65.25 and 70.5 and 72.25 and 61.75 and 74.75
same,PaO2/FiO2 end,"P/F-kvot, end, individual animals, listed as sEH-i 950",49.75 and 16.75 and 24 and 48.75 and 30.5 and 4.4 and 8.7
same,FiO2 baseline,"baseline, individual animals",0.4
same,AF baseline,[7],40 and 42 and 26 and 34 and 46
same,PaO2 baseline,[7],29.5 and 28.6 and 29.2 and 26.8 and 29.1 and 26.1 and 28.2 and 28.9 and 24.7 and 29.9
same,Mortalitet: Dödsorsak,"cause of death, individual animals, listed as sEH-i 950",Cirkulationssvikt; also recorded: Adrenalinet tog slut…; also recorded: *Tubbyte/Hypoxi; also recorded: Lungsvikt/Hypoxi
same,P/F 3h - baseline,"change of P/F from baseline to 3 h, individual animals, listed as sEH-i 950",-18.5 and -31.3 and -30.5 and -10.25 and -24.5 and -23.5 and -48 and -56.05 and -43.5 and -38
same,P/F 6h - baseline,"change of P/F from baseline to 6 h, individual animals, listed as sEH-i 950",-24.75 and -46.9 and -49.4 and -20.5 and -26.5 and -28.5 and -59.625 and -58.8214 and -54.95 and -55
same,P/F 9h- baseline,"change of P/F from baseline to 9 h (end), individual animals, listed as sEH-i 950",-24 and -54.75 and -49 and -18.25 and -34.75 and -66.1 and -63.55
same,"Mortalitet, kommentarer","comments on clinical course, individual animals, listed as sEH-i 950",Instabil. Död i högersvikt 16.20 trots adrenalin; also recorded: Tidig start adrenalininf pga lågt CO; also recorded: Mycket svårt septisk. Extrema doser adrenalin; also recorded: Mycket svårt septisk. Högersvikt; also recorded: Relativt stabil. Nästan frisk i slutet; also recorded: Försök till tubbyte -> hypoxi + död; also recorded: Standardupplägg. Ter sig septisk redan vid induktion; also recorded: Svårt septisk redan från första början. Instabil. Död i cirkulationssvikt något i förtid. Misslyckad deff; also recorded: Septisk. Kräver adrenalininf. Uttalad lungskada. Lågt CO på slutet. Högdos adrenalin. Svår hjärtsvikt; also recorded: Svår sepsis med ffa svår lungsvikt. Mors i hypoxi efter 6 h. Sista prov (6h) några minuter före död. PSVT upprepat med självterminerande vid LPS-bolus
same,Fluid administration total,"end of experiment, AEPU group",5785 (5080–7210) mL
same,Urine output,"end of experiment, AEPU group",700 (320–1200) mL
same,AF end,[8],40 and 54 and 50 and 48 and 45 and 39 and 44
same,FiO2 end,[8],0.4 and 0.8 and 0.5 and 1
same,PaO2 end,[8],19.9 and 13.4 and 12 and 19.5 and 12.2 and 4.4 and 8.7
same,CO 3 h,[9],3.2 L/min and 5.3 L/min and 3.6 L/min and 3.3 L/min and 5.7 L/min and 3.1 L/min and 4.2 L/min
same,CVP 3 h,[9],15 mmHg and 21 mmHg and 14 mmHg and 10 mmHg and 17 mmHg and 18 mmHg and 13 mmHg and 16 mmHg
same,HR 3 h,[9],141 and 137 and 175 and 135 and 140 and 119 and 162 and 144 and 164 and 114
same,MAP 3 h,[9],110 mmHg and 107 mmHg and 58 mmHg and 72 mmHg and 94 mmHg and 79 mmHg and 88 mmHg and 106 mmHg and 52 mmHg and 99 mmHg
same,MPAP 3 h,[9],65 mmHg and 39 mmHg and 41 mmHg and 43 mmHg and 46 mmHg and 47 mmHg and 54 mmHg and 51 mmHg and 55 mmHg
same,PCWP 3 h,[9],21 mmHg and 15 mmHg and 17 mmHg and 19 mmHg
same,PaCO2 3 h,[9],4.9 kPa and 5.9 kPa and 6.6 kPa and 5.6 kPa and 6.5 kPa and 5.2 kPa and 5.7 kPa and 6.9 kPa and 7.7 kPa and 5.8 kPa
